# Measured values from patent US12263140B1, “Methods of reducing the production of greenhouse gases from animals” (AGRICULTURAL SCIENCES LIMITED, priority 2023, dated 2025).
# Key:
# [1] = test system: cow rumen fluid; experiment: Fermentation of cow rumen fluid and dried grass (hay) in adjustable pressure fermenter; type: cell-based; set-up: reduction of total gas volume compared to controls, average / reduction of total gas volume compared to controls, minimum / methane emission reduction / methane emission reduction, peak / CO2 volume produced by the fermentation, reduction compared to control samples: concentration or dose not given beside the values; conditions: for inhibition of vitamin K1 effects on reducing gas production by grass: Example 2
# Description: The aerial parts of the plants were harvested and allowed to dry for a number of days, the number depend on the weather. When air dry the material was steeped in 30% ethanol for one month or more (up to 3 months). It was important to keep the steep in the dark and to have the steep vessels filled and cover tightly to prevent the entry of air. […] Samples of rumen fluid were collected from either slaughtered cows immediately after slaughter. Samples of rumen fluid were collected from the rumen of these cows by cutting the rumen wall using a sterilised knife and allowing the fluid that exuded from the cut to be collected in a sterilised kidney bowl and held in a Dewar flask at body temperature. The rumen fluid was used within one hour of slaughter. It was passed through cheese cloth or similar to filter out the liquid portion for use in this and further trials. […] The rumen fluid was kept in the dark at a temperature of 36° C. at all times during transport and storage.
# The collected rumen fluid samples were mixed with dried grass (hay) to form control samples. […] The prepared samples were then added to a trial fermenter and fermented over time to determine the total amount of gas produced during the fermentation time period along with the CO2 produced and the methane (CH4) production during the trial time period. The tubes were inspected periodically until fermentation stopped. The samples were analysed using gas chromatography (GC) with a permanent gas analysis column, in the order they were made.
# The trial fermenter used is an adjustable pressure fermenter system consisting of two arms (one closed and one open) of a manometric setup fastened to a backplate (not shown).
# Fermentation tube sizes varied from 50 ml to 250 ml. The closed arm was fixed to the supports and was closed at its top end by means of a removable stopper that has a small rubber or synthetic material septum embedded in the centre.
# Samples may be taken from the fermenter using a gas tight microlitre syringe. In use, according to one or more embodiments, the needle of the syringe is able to be inserted through the septum to take samples of fermenting fluid or gas for analysis by gas chromatography.
# The arms were free to move up or down so that the pressure in the closed arm could be brought to atmospheric pressure, which occurred when the fluid levels in both arms were at equal heights.
# For all early trials lab scale (50 ml) fermenters were used. Up to 20 fermenters could be used at the same time thus giving more reliable replications for statistical analysis. The tubes were held in a water bath held at a temperature of 36° C. with light excluded by a light-proof cover on the bath. The tubes were gently agitated during the fermentation.
# The synthetic material was produced by the oxidation of 2-methylnaphthalene to 2-methyl-1,4-naphthoquinone with chromium trioxide in sulphuric and acetic acids. Trials were completed using the above trial fermenter and method using rumen fluid as described in Example 1.
# To investigate this, fermentations were completed using the apparatus described in Example 1 and FIG. 1 using samples of fresh cow rumen fluid and dried grass, according to one or more embodiments.
# [2] = test system: cow rumen fluid; experiment: SIFT-MS analysis of gas from grass fermentations by cow rumen fluid; type: cell-based
# Description: A SIFT-MS analyser was further used to confirm the above noted effects in terms of reductions in methane. A SIFT-MS device (see https://syft.com/sift-ms-technology/) is an advanced method for analysing mixtures of smaller volatile organic compounds.
smiles,measurement,setting,value
CC1=C(C/C=C(\C)CCC[C@H](C)CCC[C@H](C)CCCC(C)C)C(=O)c2ccccc2C1=O [vitamin K1],"CO2 volume produced by the fermentation, reduction compared to control samples",[1],83.4%
same,inhibition of vitamin K1 effects on reducing gas production by grass,[1]; grass fermented immediately after harvest,total
same,inhibition of vitamin K1 effects on reducing gas production by grass,[1]; older (3+ day old) grass,only a small inhibitory effect
same,gas volume produced,"[1]; Example 9, Trial 4, vitamin K1 and sulphide both added",consistent with and even slightly higher than control
same,methane emission reduction,[1]; further trials,66.7%
same,"reduction of total gas volume compared to controls, average",[1]; further trials,80.2%
same,"reduction of total gas volume compared to controls, maximum",[1]; further trials,94.5%
same,"reduction of total gas volume compared to controls, minimum",[1]; further trials,75.9%
same,"methane emission reduction, peak","[1]; further trials, under specific conditions",91%
same,reduction in methane compared with controls,[2],83.6%
same,reduction in total volume compared with controls,[2],56.8%
